From article PMC5294416, “Novel peptides for deciphering structural and signalling functions of E-cadherin in mouse embryonic stem cells” (Scientific Reports, 2017)
“Also recorded” adds a separate entry of the source.

Assays:
[1] = tested on: Nanog, Klf4, Tbx3, Esrrb, Nr0b1, Nr5a2 and Tet1 transcripts in wtD3 mESCs; assay: qPCR analysis of pluripotency transcript expression; format: cell-based, mouse
Method: (§1) Unless otherwise stated, mESC lines were grown on gelatinised tissue culture grade 6-well plates at 37 °C/5% CO2, as previously described. mESCs cells were treated with 10 μM peptide in mESC culture medium which was replenished every 24 h. Inhibition of specific pathways in mESCs was achieved by incubation with 10 μM LY294002 (PI3K inhibitor), PD9805 (MEK inhibitor) and SB431542 (TGFβ1 R inhibitor).
Primers for qPCR were designed using the Roche Applied science Universal Probe Library software and BLAST screened for sequence specificity. Only primers producing a single dissociation peak were used. RNA was extracted from mESCs and cDNA at a concentration of 2 ng/μl was used for analysis in a MicroAmp Optical 96-well Reaction Plate (Applied Biosystems) using SYBR green Jumpstart Taq ReadyMix (Applied Biosystems). Primer sequences: 18srRNA Forward (F) […], Reverse (R) […]; ESRRB F-[…], R-[…]; KLF4 F-[…], R-ATGTCCGCCAGGTTGAAG; NANOG F-[…], R-[…]; NR0B1 F-[…], R-[…]; NR5A2 F-[…], R-[…]; TBX3 F-[…], R-[…]; TET1 F-[…], R-[…].

mESCs = assay: Cell viability in monolayer culture; format: cell-based, mouse; details: data not shown
[2] = tested on: OCT4 protein in wtD3 mESCs; assay: Immunofluorescence microscopy analysis of OCT4 protein expression with pathway inhibitors; format: cell-based, mouse
Method: as §1
(§2) Monolayer cultured mESCs were fixed in situ in 4% w/v PFA in PBS for 30 minutes at room temperature, washed twice with PBS and blocked with 1% goat serum in 0.1% w/v BSA, 0.1% Triton X-100 in PBS for 30 minutes. Cells were incubated in the appropriate primary antibody in goat blocking buffer for two hours at RT. Cells were washed three times in PBS and incubated in the appropriate Alexa fluor-488 or −546 conjugated secondary antibody at RT for 1 hour in the dark. Cells were washed three times with PBS, mounted in 4′6-diamidino-2-phenylindole (DAPI) (Vector Laboratories) and visualized using a Leica DM6000B fluorescence microscope (Leica Microsystems) and processed using Leica LAS X Core software (Leica Microsystems). Primary antibodies: anti-Nanog, 1:200 dilution (ab80892, Abcam Plc, Cambridge, UK); anti-Oct4, 1:200 dilution (ab19857, Abcam Plc, Cambridge, UK). For immunofluorescence microscopy analysis of fluorescent-tagged peptides, cells were incubated in 500 μM peptide in cell culture medium for 15 minutes, washed twice in ice cold PBS and mounted with Vectorshield containing DAPI. Cells were visualized using a Leica DM6000B fluorescence microscope (Leica Microsystems) and processed using Leica LAS X Core software (Leica Microsystems).
(§3) Images were imported into ImageJ and fluorescence intensity measured using the Analyse > Measure function on areas selected using the rectangular or oval selection icons.

wtD3 mESCs [3] = assay: Loss of cell-cell contact, phase contrast microscopy; format: cell-based, mouse
Method: as §1

[4] = tested on: Akt phosphorylation in mESCs; assay: Akt phosphorylation in treated mESCs; format: cell-based, mouse; details: data not shown
Method: (§4) Cells were harvested using cell dissociation buffer, centrifuged and washed with PBS prior to lysis using Radioimmunoprecipitation (RIPA) buffer (Sigma) containing protease inhibitor cocktail tablets (1 tablet per 10 ml RIPA buffer) (Roche Applied Science) at a concentration of 2 × 10^7 cell/ml. Lysates were separated by SDS-PAGE and electrotransferred onto nitrocellulose membrane as previously described. The membrane was probed using the appropriate primary antibody with subsequent incubation with HRP-conjugated secondary antibody. The membrane was exposed to an autoradiographic film (Hyperfilm ECL, GE Healthcare, Amersham, UK) for the appropriate time period in an X-ray cassette before the film was manually developed in a dark room using Kodak GBX developer and fixer solutions (Sigma, Dorset, UK). Primary antibodies: anti-α-tubulin, 1:2000 dilution (T9026, Sigma, Dorset, UK); anti-AKT, 1:200 dilution (#9272, Cell Signalling Technology, MA, USA); anti-pAKT (Ser473), 1:200 (#4060S, Cell Signalling Technology, MA, USA); anti-STAT3, 1:200 dilution (SC-482, Santa Cruz Biotechnology Inc, TX, USA); anti-pSTAT3, 1:200 dilution (#9138S, Cell Signalling Technology, MA, USA).

[5] = target: T1, recombinant mouse E-Cadherin Fc Chimera (Mus musculus, UniProt P09803); assay: Biacore SPR equilibrium binding analysis (affinity capture)
T1 construct: purchased R&D Systems
Method: Biacore SPR analysis was used to measure the interaction between peptides and recombinant mouse E-Cadherin Fc Chimera (R&D Systems). Analytes were passed over an HTE chip with surface bound His-tagged Recombinant Mouse E-Cadherin Fc Chimera (R&D Systems). The kinetics of interaction, i.e. the rates of complex formation (ka) and dissociation (kd), were determined and Integrin α4β7 protein was used as a control. Analysis was performed by the Biomolecular Analysis Core Facility (The University of Manchester, UK) on a Proteon XPR-36 protein interaction array system (Bio-Rad) using a HTE chip for high capacity His-tagged protein capture (Bio-Rad). Equilibrium analysis runs were performed three times and an average KD was calculated. Running buffer: HBS/0.02%, Tween/2 mM, CaCl2/1 mM MgCl2.

[6] = tested on: STAT3 phosphorylation in wtD3 mESCs; details: mESC; cited from earlier work
From the text: (§5) E-cadherin provides an attractive target to manipulate ESCs in culture since cell signalling mediated through this protein has significant effects on both ESC pluripotent states and survival. We have previously shown that abrogation of E-cadherin-mediated cellular aggregation allows culture of mESCs in shake flask bioreactors whilst retaining pluripotency, either through gene knockout or an inhibitory antibody DECMA-1[16]. However, utilisation of E-cadherin neutralising Abs for ESC culture is expensive and more cost-effective E-cadherin inhibitors are required before this technique becomes com ...

MCF-7 = MCF-7 cell line; cited from earlier work
From the text: as §5

wtD3 mESCs [7] = details: mESC cell line; cited from earlier work
From the text: as §5

[8] = tested on: NANOG protein in wtD3 mESCs; assay: Immunofluorescence microscopy analysis of NANOG protein expression; format: cell-based, mouse; details: 96 h / 4 days where stated
Method: as §2, with “For immunofluorescence microscopy analysis of fluorescent-tagged peptides, cells were incubated in 500 μM peptide in cell culture medium for 15 minutes, washed twice in ice cold PBS and mounted with Vectorshield containing DAPI.” left out
as §3

[9] = tested on: STAT3 phosphorylation in wtD3 mESCs; assay: Western blot analysis of phosphorylated STAT3; format: cell-based, mouse
Method: as §1, §4

pERK1/2 in wtD3 mESCs = assay: Western blot analysis of phosphorylated ERK1/2; format: cell-based, mouse
[10] = transcript, mESCs, Fig. 6a summary

## H-SWELYYPLRANL-NH2 [Epep, H-SWELYYPLRANL-NH2]
[1]; mESCs, 24 h post-removal
  Transcripts restored to control levels after removal of inhibitor: Nanog, Esrrb, Tbx3 and Tet1
[1]; [10]
  Loss of ESRRB: YES
  Loss of Klf4: YES
  Loss of Nanog: YES
  Loss of Nr0b1: YES
  Loss of Nr5a2: YES
  Loss of TBX3: YES
[1]; wtD3 mESCs, 10 μM peptide, 24 h
  Transcripts with decreased expression compared to control (qPCR): Nanog, Klf4, Tbx3, Esrrb, Nr0b1, Nr5a2 and Tet1
[1]; wtD3 mESCs, 24 h following removal
  Transcripts remaining significantly decreased after removal of inhibitor: Klf4, Nr0b1 and Nr5a2
mESCs
  cell viability in monolayer culture: no significant difference in cell viability
[2]; peptide-treated wtD3 mESCs plus Activin/Nodal inhibitor SB431542, after 5 days
  OCT4 protein expression in the presence of SB431542: maintained expression of OCT4 protein
[2]; peptide-treated wtD3 mESCs plus FGFR1 inhibitor SU5402, after 5 days
  OCT4 protein expression in the presence of SU5402: maintained expression of OCT4 protein
wtD3 mESCs [3]; mESCs, 10 μM, Fig. 6a summary
  Loss of cell-cell contact (10μM)?: YES
wtD3 mESCs [3]; wtD3 mESCs, 10 μM peptide, 24 h, phase contrast
  Effect on cell-cell contact (in words): loss of cell-cell contact after 24 h; also recorded: loss of cell-cell contact within 24 h
wtD3 mESCs [3]; wtD3 mESCs, 24 h post-removal of treatment
  Cell-cell contact after removal of the inhibitor: restoration of cell-cell contact; also recorded: reversible
[4]
  Akt phosphorylation: no changes in Akt phosphorylation
[5]; equilibrium analysis using affinity capture on HTE chip, peptide stock in water, average of three runs, running buffer HBS/0.02% Tween/2 mM CaCl2/1 mM MgCl2
  Kd: 3.4 µM
[5]; peptide dissolved in 10%v/v DMSO/H2O, equilibrium analysis using affinity capture
  Kd: 1.15 µM
[6]
  phosphorylation of STAT3: abrogate phosphorylation of STAT3
MCF-7
  inhibition of E-cadherin mediated cell-cell contact: inhibit E-cadherin mediated cell-cell contact
wtD3 mESCs [7]
  inhibition of E-cadherin mediated cell-cell contact: inhibit E-cadherin mediated cell-cell contact
[8]
  NANOG protein expression: decreased NANOG protein expression
[9]; mESCs, Fig. 6a summary
  Loss of pStat3: YES
[9]; wtD3 mESCs vs control treated cells, western blot
  Effect on STAT3 phosphorylation (in words): decreased STAT3 phosphorylation within 24 h; also recorded: significantly decreased phosphorylation of STAT3
pERK1/2 in wtD3 mESCs
  pERK1/2 compared to untreated mESCs: decreased pERK1/2
